Reference: PubChem BioAssay AID212 (DTP/NCI, 2004)
Values joined by “and” are separate entries in the source; they are usually repeats but may differ in a detail not shown here. Identical values can stand only once. Records with an inconclusive call do not appear.

Tested on: BDF1 mice, colon carcinoma 38 sc, T/C %
Assay: NCI In Vivo Anticancer Drug Screen. Data for tumor model Colon Carcinoma 38 (subcutaneous) in B6D2F1 (BDF1) mice
Details: endpoint: median tumor weight (est.), higher = larger tumour
Procedure, shortened: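 Mice with transplanted tumors are treated with compound or vehicle. Survival or tumor size is then measured in both groups. The ratio of treated to control gives the reported figure.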

[1] = dose: 25.0 mg/kg/injection, schedule: Q07DX002 (ip), vehicle: saline with Tween-80
[2] = dose: 100.0 mg/kg/injection, schedule: Q07DX002 (ip), vehicle: saline with Tween-80
[3] = dose: 200.0 mg/kg/injection, schedule: Q07DX002 (ip), vehicle: saline with Tween-80
[4] = dose: 400.0 mg/kg/injection, schedule: Q07DX002 (ip), vehicle: saline with Tween-80
[5] = dose: 800.0 mg/kg/injection, schedule: Q07DX002 (ip), vehicle: saline with Tween-80
[6] = dose: 12.5 mg/kg/injection, schedule: Q07DX002 (ip), vehicle: saline
[7] = dose: 200.0 mg/kg/injection, schedule: Q07DX002 (ip), vehicle: saline
[8] = dose: 400.0 mg/kg/injection, schedule: Q07DX002 (ip), vehicle: saline
[9] = dose: 1.0 mg/kg/injection, schedule: Q07DX002 (ip), vehicle: saline
[10] = dose: 25.0 mg/kg/injection, schedule: Q07DX002 (ip), vehicle: Klucel (hydroxypropylcellulose) (HPC)
[11] = dose: 12.5 mg/kg/injection, schedule: Q07DX002 (ip), vehicle: Klucel (hydroxypropylcellulose) (HPC)
[12] = dose: 50.0 mg/kg/injection, schedule: Q07DX002 (ip), vehicle: Klucel (hydroxypropylcellulose) (HPC)
[13] = dose: 4.0 mg/kg/injection, schedule: Q07DX002 (ip), vehicle: saline
[14] = dose: 8.0 mg/kg/injection, schedule: Q07DX002 (ip), vehicle: saline
[15] = dose: 16.0 mg/kg/injection, schedule: Q07DX002 (ip), vehicle: saline
[16] = dose: 32.0 mg/kg/injection, schedule: Q07DX002 (ip), vehicle: saline

SMILES: C[C@H](CCC[C@H](C)OS(=O)(=O)c1ccccc1)OS(=O)(=O)c1ccccc1
- T/C [1]: 89 % of control and 91 % of control
- T/C (dose: 50.0 mg/kg/injection, schedule: Q07DX002 (ip), vehicle: saline with Tween-80): 91 % of control and 98 % of control
- T/C [2]: 82 % of control
- T/C [3]: 120 % of control and 100 % of control
- T/C [4]: 118 % of control
- T/C [5]: 116 % of control

SMILES: COC1CC(CC2CCC(C)C(C(C)C(=O)O)O2)OC2(OC(C)(C3CCC(C)(C4OC(C5OC(O)(CO)C(C)CC5C)CC4C)O3)CC2C)C1C (stereo not given)
- T/C (dose: 0.3 mg/kg/injection, schedule: Q07DX002 (ip), vehicle: Klucel (hydroxypropylcellulose) (HPC)): 61 % of control
- T/C (dose: 0.31 mg/kg/injection, schedule: Q07DX002 (ip), vehicle: Klucel (hydroxypropylcellulose) (HPC)): 42 % of control
- T/C (dose: 1.25 mg/kg/injection, schedule: Q07DX002 (ip), vehicle: Klucel (hydroxypropylcellulose) (HPC)): 74 % of control and 82 % of control
- T/C (dose: 2.5 mg/kg/injection, schedule: Q07DX002 (ip), vehicle: Klucel (hydroxypropylcellulose) (HPC)): 58 % of control and 70 % of control
- T/C (dose: 5.0 mg/kg/injection, schedule: Q07DX002 (ip), vehicle: Klucel (hydroxypropylcellulose) (HPC)): 46 % of control and 55 % of control
- T/C (dose: 10.0 mg/kg/injection, schedule: Q07DX002 (ip), vehicle: Klucel (hydroxypropylcellulose) (HPC)): 52 % of control

SMILES: O=c1[nH]c(=O)c2nc(-c3cccnc3)cnc2[nH]1
- T/C [6]: 116 % of control
- T/C (dose: 25.0 mg/kg/injection, schedule: Q07DX002 (ip), vehicle: saline): 78 % of control and 81 % of control
- T/C [7]: 80 % of control and 103 % of control
- T/C [8]: 95 % of control and 97 % of control

SMILES: CC(=O)OC1C2OC3C=C(C)CCC3(CO)C(C)(C1O)C21CO1 (stereo not given)
- T/C [9]: 80 % of control

SMILES: COc1cc2cc[n+](C)c(Cc3ccccc3)c2cc1OC
- T/C (dose: 12.5 mg/kg/injection, schedule: Q07DX003 (ip), vehicle: saline): 113 % of control
- T/C (dose: 25.0 mg/kg/injection, schedule: Q07DX003 (ip), vehicle: saline): 84 % of control
- T/C (dose: 50.0 mg/kg/injection, schedule: Q07DX003 (ip), vehicle: saline): 80 % of control

SMILES: CC(=O)NC(Cc1ccc(F)cc1)C(=O)O (stereo not given)
- T/C [2]: 84 % of control
- T/C [3]: 83 % of control
- T/C [4]: 77 % of control
- T/C [5]: 77 % of control

SMILES: CNc1nc2c(N)ncnc2n1C1OC(CO)C(O)C1O (stereo not given)
- T/C [6]: 103 % of control

SMILES: O=C(O[Si](Cc1ccccc1)(Cc1ccccc1)Cc1ccccc1)N(CCCl)CCCl
- T/C [1]: 77 % of control and 102 % of control
- T/C [2]: 194 % of control
- T/C [3]: 112 % of control

SMILES: CCC[CH2][Sn]1([CH2]CCC)[O]C2C(CO)OC(n3ccc(N)nc3=O)C2[O]1 (stereo not given)
- T/C (dose: 1.56 mg/kg/injection, schedule: Q07DX002 (ip), vehicle: Klucel (hydroxypropylcellulose) (HPC)): 61 % of control and 72 % of control
- T/C [10]: 91 % of control

SMILES: Cc1ccccc1CN1C2=NCCN2C(=O)C2=C1CCN(S(=O)(=O)c1ccc(Cl)c(S(N)(=O)=O)c1)C2
- T/C (dose: 50.0 mg/kg/injection, schedule: Q07DX002 (ip), vehicle: saline): 97 % of control
- T/C (dose: 100.0 mg/kg/injection, schedule: Q07DX002 (ip), vehicle: saline): 86 % of control
- T/C [7]: 91 % of control
- T/C [8]: 96 % of control
- T/C (dose: 450.0 mg/kg/injection, schedule: Q07DX002 (ip), vehicle: saline): 84 % of control
- T/C (dose: 900.0 mg/kg/injection, schedule: Q07DX002 (ip), vehicle: saline): 100 % of control
- T/C (dose: 1800.0 mg/kg/injection, schedule: Q07DX002 (ip), vehicle: saline): 110 % of control

SMILES: C=C(NC(=O)C(=C)NC(=O)c1csc(C2=NC3c4csc(n4)C4NC(=O)c5csc(n5)C(C(C)(O)C(C)O)NC(=O)C5CSC(=N5)/C(=C/C)NC(=O)C(C(C)O)NC(=O)c5csc(n5)C3(CC2)NC(=O)C(C)NC(=O)C(=C)NC(=O)C(C)NC(=O)C(C(C)CC)NC2C=Cc3c(C(C)O)cc(nc3C2O)C(=O)OC4C)n1)C(N)=O (stereo not given)
- T/C [11]: 70 % of control
- T/C [12]: 106 % of control
- T/C (dose: 100.0 mg/kg/injection, schedule: Q07DX002 (ip), vehicle: Klucel (hydroxypropylcellulose) (HPC)): 106 % of control
- T/C (dose: 200.0 mg/kg/injection, schedule: Q07DX002 (ip), vehicle: Klucel (hydroxypropylcellulose) (HPC)): 110 % of control
- T/C (dose: 400.0 mg/kg/injection, schedule: Q07DX002 (ip), vehicle: Klucel (hydroxypropylcellulose) (HPC)): 119 % of control
- T/C (dose: 400.0 mg/kg/injection, schedule: Q07DX003 (ip), vehicle: Klucel (hydroxypropylcellulose) (HPC)): 119 % of control

SMILES: Nc1ncn(C2CC(O)C(CO)O2)c(=O)n1 (stereo not given)
- T/C (dose: 0.5 mg/kg/injection, schedule: Q07DX002 (ip), vehicle: Klucel (hydroxypropylcellulose) (HPC)): 102 % of control
- T/C (dose: 0.5 mg/kg/injection, schedule: Q07DX002 (ip), vehicle: saline): 90 % of control
- T/C (dose: 1.0 mg/kg/injection, schedule: Q07DX002 (ip), vehicle: Klucel (hydroxypropylcellulose) (HPC)): 113 % of control
- T/C [9]: 99 % of control
- T/C (dose: 2.0 mg/kg/injection, schedule: Q07DX002 (ip), vehicle: Klucel (hydroxypropylcellulose) (HPC)): 86 % of control
- T/C (dose: 2.0 mg/kg/injection, schedule: Q07DX002 (ip), vehicle: saline): 75 % of control
- T/C (dose: 3.0 mg/kg/injection, schedule: Q07DX002 (ip), vehicle: saline): 14 % of control and 34 % of control
- T/C (dose: 4.0 mg/kg/injection, schedule: Q07DX002 (ip), vehicle: Klucel (hydroxypropylcellulose) (HPC)): 106 % of control
- T/C [13]: 43 % of control
- T/C (dose: 6.0 mg/kg/injection, schedule: Q07DX002 (ip), vehicle: saline): 29 % of control and 46 % of control
- T/C (dose: 8.0 mg/kg/injection, schedule: Q07DX002 (ip), vehicle: Klucel (hydroxypropylcellulose) (HPC)): 60 % of control
- T/C [14]: 28 % of control
- T/C (dose: 12.0 mg/kg/injection, schedule: Q07DX002 (ip), vehicle: saline): 23 % of control
- T/C (dose: 16.0 mg/kg/injection, schedule: Q07DX002 (ip), vehicle: Klucel (hydroxypropylcellulose) (HPC)): 41 % of control
- T/C [15]: 22 % of control
- T/C (dose: 32.0 mg/kg/injection, schedule: Q07DX002 (ip), vehicle: Klucel (hydroxypropylcellulose) (HPC)): 43 % of control
- T/C [16]: 4 % of control

SMILES: NCCc1ccc(O)c(O)c1
- T/C (dose: 112.5 mg/kg/injection, schedule: Q07DX002 (ip), vehicle: Klucel (hydroxypropylcellulose) (HPC)): 122 % of control
- T/C (dose: 225.0 mg/kg/injection, schedule: Q07DX002 (ip), vehicle: Klucel (hydroxypropylcellulose) (HPC)): 109 % of control and 87 % of control
- T/C (dose: 450.0 mg/kg/injection, schedule: Q07DX002 (ip), vehicle: Klucel (hydroxypropylcellulose) (HPC)): 113 % of control and 103 % of control
- T/C (dose: 900.0 mg/kg/injection, schedule: Q07DX002 (ip), vehicle: Klucel (hydroxypropylcellulose) (HPC)): 95 % of control and 97 % of control

SMILES: C=C1C(=O)OCC1C(=O)O (stereo not given)
- T/C [13]: 290 % of control
- T/C [14]: 281 % of control
- T/C [15]: 297 % of control
- T/C [16]: 278 % of control
- T/C (dose: 64.0 mg/kg/injection, schedule: Q07DX002 (ip), vehicle: saline): 344 % of control

SMILES: CCc1ccc(C2=C(O)C(=O)C(c3ccccc3)=C(O)C2=O)cc1
- T/C [11]: 101 % of control
- T/C [10]: 81 % of control
- T/C [12]: 50 % of control

SMILES: Nc1ccn(C2CC(O)C(CO)O2)c(=O)n1 (stereo not given)
- T/C (dose: 42.19 mg/kg/injection, schedule: Q07DX002 (ip), vehicle: water): 124 % of control
- T/C (dose: 84.38 mg/kg/injection, schedule: Q07DX002 (ip), vehicle: water): 79 % of control
- T/C (dose: 337.5 mg/kg/injection, schedule: Q07DX002 (ip), vehicle: water): 110 % of control
